Source: US6495370B1, “Inhibition of glutathione transferase by haloenol lactones” (The Regents of the University of California, priority 1995, dated 2002)
Where two headings read alike, the source gives them in different places.

How the values were obtained:
Type in all cases: biochemical
GST pi isozyme [1] = target: T1, GST pi isozyme (Mus musculus, UniProt P19157); assay: Time-dependent inhibition of GST pi with and without S-hexylglutathione; conditions: haloenol lactone 2 200 μM
T1 construct: The three major mouse liver GST isoenzymes were purified according to established methods; from tissue; host or cells: liver of male CD-1 mice
T1 sequence (P19157 2-210 limits assumed): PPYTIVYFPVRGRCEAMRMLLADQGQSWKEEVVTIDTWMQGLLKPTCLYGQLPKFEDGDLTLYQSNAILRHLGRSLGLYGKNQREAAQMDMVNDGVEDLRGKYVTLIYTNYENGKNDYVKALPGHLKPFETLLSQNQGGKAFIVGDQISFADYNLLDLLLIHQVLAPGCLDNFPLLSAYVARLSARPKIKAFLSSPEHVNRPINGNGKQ
Method: FIG. 7: Inactivation of glutathione S-transferase (GST) pi isozyme by haloenol lactone 2. The GST concentration was 1.0 μM): ●, control; ▴, +haloenol lactone 2 (200 μM), no S-hexylglutathione; ▪, +haloenol lactone 2 (200 μM), +S-hexylglutathione (2,000 μM).
Enzyme inhibition studies and enzyme assays for this experiment were performed as described in Example 3. S-hexylglutathione dissolved in a 0.1 M potassium phosphate buffer (pH 6.5) was added in the incubation solution. […] In this experiment, we incubated compound 2 with GST-pi isozyme in the presence of S-hexylglutathione (2,000 μM), a competitive inhibitor of GST. […] (See FIG. 7).

GST mu = target: T2, GST mu (Mus musculus, UniProt P10649); assay: Time-dependent inhibition of purified GST mu isoenzyme (GSH/CDNB activity assay); conditions: 100 μM compound, GST 1.0 μM, after 5 minutes at 37° C.
T2 construct: The three major mouse liver GST isoenzymes were purified according to established methods; from tissue; host or cells: liver of male CD-1 mice
T2 sequence (P10649 2-218 limits assumed): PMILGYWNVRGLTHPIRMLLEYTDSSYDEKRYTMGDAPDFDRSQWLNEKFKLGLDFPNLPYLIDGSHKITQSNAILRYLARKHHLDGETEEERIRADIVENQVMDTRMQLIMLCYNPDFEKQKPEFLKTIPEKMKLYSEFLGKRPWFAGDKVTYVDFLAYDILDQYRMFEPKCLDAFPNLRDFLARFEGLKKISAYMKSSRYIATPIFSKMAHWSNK
Method: (§1) The three major mouse liver GST isoenzymes were purified according to established methods. Male CD-1 mice, 25-35 g, were purchased from Charles River Breeding Laboratories, Inc. (Wilmington, Mass.). Animals were housed on autoclaved pine shavings in approved animal care facilities and fed ad libitum for 1 week prior to cervical dislocation.
(§2) Mice were killed by cervical dislocation and livers were removed, rinsed with ice-cold 10 mM Tris buffer (pH 7.4) containing 0.25 M sucrose, 1 mM EDTA and 1 mM DTT (buffer A). The tissues were homogenized in buffer A (1 g tissue/2 mL buffer). Centrifugation and all subsequent purification steps were carried out at 4° C. […] Column eluants were monitored at 280 nm using an Isco-UA5 detector. […] Pooled proteins were analyzed by ESI/MS to determine purity and subunit molecular weight. […]
(§3) For the enzyme inhibition studies, solutions of alpha, mu and pi glutathione S-transferase (1.0 μg/μl) were prepared in a 0.1 M potassium phosphate buffer (pH 6.5). […] Aliquots were withdrawn at 1, 3, 5, 8 and 12 min, and GST activity was measured using GSH and CDNB as substrates according to the method of Habig et al. (1974) J. Biol. Chem. 249:7130-7139.
(§4) In brief, the activity of the enzyme was determined in a 0.1 M potassium phosphate buffer (pH 6.5) containing 1 mM GSH and 1 mM CDNB using an extinction coefficient of 9.6 mM^−1 cm^−1. […]

GST alpha = target: T3, GST alpha (Mus musculus, UniProt P30115); assay: Time-dependent inhibition of purified GST alpha isoenzyme (GSH/CDNB activity assay); conditions: 100 μM compound, GST 1.0 μM, after 5 minutes at 37° C.
T3 construct: The three major mouse liver GST isoenzymes were purified according to established methods; from tissue; host or cells: liver of male CD-1 mice
T3 sequence (P30115 2-221 limits assumed): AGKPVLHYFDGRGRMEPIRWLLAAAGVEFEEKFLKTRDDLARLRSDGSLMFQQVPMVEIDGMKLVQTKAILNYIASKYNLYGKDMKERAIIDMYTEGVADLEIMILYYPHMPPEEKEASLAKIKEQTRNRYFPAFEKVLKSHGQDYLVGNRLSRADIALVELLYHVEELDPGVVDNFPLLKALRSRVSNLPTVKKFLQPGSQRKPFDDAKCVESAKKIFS
Method: as §1, §2, §3, §4

GST pi isoenzyme [2] = target: T4, GST pi isoenzyme (Mus musculus, UniProt P19157); assay: Kinetic constants for inhibition of GST pi isoenzyme
T4 construct: The three major mouse liver GST isoenzymes were purified according to established methods; from tissue; host or cells: liver of male CD-1 mice
T4 sequence (P19157 2-210 limits assumed): as the sequence (P19157 2-210 limits assumed) above
Method: Compounds 1 and 2 were synthesized and purified as described in Example 1, and GST pi isoenzyme was isolated from mouse liver as described in Example 2. Enzyme inhibition studies were performed as described in Example 3, except that four different concentrations of inhibitor were used. Enzyme assays were performed as described in Example 3.

GST pi isoenzyme [3] = target: T4, GST pi isoenzyme; assay: Time-dependent inhibition of purified GST pi isoenzyme (GSH/CDNB activity assay); conditions: for enzyme activity of GST pi: 100 μM compound, GST 1.0 μM, after 5 minutes at 37° C.; for nature of inhibitory effect on GST pi isozyme: summary statement
Method: as §1
Mice were killed by cervical dislocation and livers were removed, rinsed with ice-cold 10 mM Tris buffer (pH 7.4) containing 0.25 M sucrose, 1 mM EDTA and 1 mM DTT (buffer A). The tissues were homogenized in buffer A (1 g tissue/2 mL buffer). Centrifugation and all subsequent purification steps were carried out at 4° C. The homogenate was centrifuged at 10,000 g for 30 min. The supernatant fraction was then collected and centrifuged at 100,000 g for 80 min. Supernatant was next passed through a Sephadex G-25 Column (100 cm×2.5 cm) which had been pre-equilibrated in 25 mM potassium phosphate buffer (pH 7.4) containing 1 mM EDTA and 1 mM DTT (buffer B). Column eluants were monitored at 280 nm using an Isco-UA5 detector. The elutant from the G-25 column containing GST activity was applied to an affinity column (11 cm×2.5 cm, GSH-linked agarose, Sigma) at a flow rate of 0.64 ml/min. The first two GST isozymes were eluted using a linear gradient (0-75 mM) of GSH in buffer b (250 mL×250 mL). The third peak containing activity towards CDNB was eluted by using a linear gradient of increasing pH (7.4-9.0) in buffer b which was 75 mM in GSH (150 mL×150 mL). The three main peaks of activity were recovered and pooled separately. Each pool was concentrated to 25-30 mL in an Amicon ultrafiltration cell (Amicon, Inc., Beverly, Mass., USA) with a PM 10 membrane and dialyzed against 4L nanopure water. Pooled proteins were analyzed by ESI/MS to determine purity and subunit molecular weight. […]
as §3
In brief, the activity of the enzyme was determined in a 0.1 M potassium phosphate buffer (pH 6.5) containing 1 mM GSH and 1 mM CDNB using an extinction coefficient of 9.6 mM^−1 cm^−1. […] The rate of product formation was monitored by measuring the change in absorbance at 340 nm using a Shimadzu PC-2101 uv-visible spectrophotometer (Shimadzu Scientific Instruments, Columbia, Md., USA). Specific activities are based on protein concentrations as determined by the Bradford protein determination kit from Biorad, Hercules, Calif., USA, using bovine serum albumin as a reference.

GST pi isozyme [4] = target: T1, GST pi isozyme; assay: Irreversible inhibition of GST pi: activity after incubation and exhaustive dialysis; conditions: 10-fold excess of compound, 37° C., 3 hours, then dialysis against 6 changes of water
Method: The dialyzed protein sample was dried by lyophilization. The recovered protein was re-dissolved in water, and specific enzyme activity was determined by measuring the protein content and GST activity.

[5] = GST pi 1.0 μM, 37° C., four inhibitor concentrations

| effect of S-hexylglutathione on time-dependent inhibition of GST by compound 2 (GST pi isozyme [1]; S-hexylglutathione 2,000 μM, GST pi 1.0 μM) | enzyme activity of GST mu remained (GST mu) | enzyme activity of GST alpha remained (GST alpha) | Ki (GST pi isoenzyme [2]; GST pi 1.0 μM, 37° C., four inhibitor concentrations, read-out: KI) [µM] | kinact/KI (GST pi isoenzyme [2]; GST pi, read-out: kinact/KI ratio (converted)) [M⁻¹ s⁻¹] | Structure (SMILES) | kinact (GST pi isoenzyme [2]; [5]) [s⁻¹] | enzyme activity of GST pi (GST pi isoenzyme [3]) | nature of inhibitory effect on GST pi isozyme (GST pi isoenzyme [3]) | time in which the enzyme was totally inactivated (GST pi isozyme [1]; GST 1.0 μM, no S-hexylglutathione) [min] | enzyme activity of modified GST remained relative to the control (GST pi isozyme [4]) [%] | restoration of GST activity by exhaustive dialysis (GST pi isozyme [4]) | Ki (GST pi isoenzyme [2]) [µM] | kinact/KI (GST pi isoenzyme [2]; read-out: kinact/KI ratio) [M⁻¹ s⁻¹] |
| --- | --- | --- | --- | --- | --- | --- | --- | --- | --- | --- | --- | --- | --- |
| completely suppressed | – | – | – | – | CCCCCCSC[C@H](NC(=O)CC[C@H](N)C(=O)O)C(=O)NCC(=O)O [S-hexylglutathione, reference compound] | – | – | – | – | – | – | – | – |
| – | about 80% | about 80% | 64.4 | 308 | O=C1O/C(=C/Br)CC1CC1OC1c1ccccc1 (stereo not drawn) [compound 1, 3-Cinnamyl-(α,β-epoxy)-5(E)-bromomethylidenetetrahydro-2-furanone] | 0.0198 | completely inhibited | time-dependent and irreversible | – | – | – | – | – |
| – | – | – | – | – | O=C1O/C(=C/Br)CC1CC=Cc1ccccc1 (stereo not shown) [compound 2, 3-Cinnamyl-5(E)-bromomethylidenetetrahydro-2-furanone] | 0.00933 | completely inhibited | time-dependent and irreversible | 8 | 7.8 | not restored | 86.7 | 108 |
